In patent publication US12397518B2, “WS12-releasing contact lens” (CooperVision International Limited, priority 2021, dated 2025):

What was measured:
[1] = WS12 leaching into PBS packaging solution during autoclave (HPLC); assay type: physicochemical; details: standard contact lens sterilization and storage conditions
Procedure: Silicone hydrogel contact lenses were prepared by curing the formulation for stenfilcon A in contact lens molds. The cured stenfilcon A was removed from the molds and extracted by immersing them for 215 minutes in ethanol (EtOH) containing WS12 (Tocris Bioscience) in the loading concentrations shown in Table I. The lenses were removed from the EtOH and washed in DI water for approximately 6 minutes, followed by two exchanges of DI water for approximately 30 minutes each. The lenses were transferred to 6 mL glass vials containing 3 mL phosphate buffered saline at pH 7.5 (0.78 wt. % NaCl, 0.05 wt. % sodium phosphate monobasic, and 0.36 wt. % sodium phosphate dibasic), referred to herein as PBS. The vials were sealed and autoclaved.
Each autoclaved lens was transferred to a vial containing 3 ml EtOH and stored overnight on a 150 rpm shaker at room temperature to extract WS12 from the lens. The EtOH extracts and the PBS in which the lenses were autoclaved were submitted for analysis by HPLC (detection wavelength=250 nm) against calibration standards to determine the average amount of WS12 loaded into each (n=5) and whether the WS12 leaches from the lens during autoclave.

[2] = molecular target: transient receptor potential melastatin-8 (TRPM8) ion channels (Homo sapiens, UniProt Q7Z2W7); details: background statement; cited from earlier work
transient receptor potential melastatin-8 (TRPM8) ion channels, sequence (Q7Z2W7 whole entry, species assumed): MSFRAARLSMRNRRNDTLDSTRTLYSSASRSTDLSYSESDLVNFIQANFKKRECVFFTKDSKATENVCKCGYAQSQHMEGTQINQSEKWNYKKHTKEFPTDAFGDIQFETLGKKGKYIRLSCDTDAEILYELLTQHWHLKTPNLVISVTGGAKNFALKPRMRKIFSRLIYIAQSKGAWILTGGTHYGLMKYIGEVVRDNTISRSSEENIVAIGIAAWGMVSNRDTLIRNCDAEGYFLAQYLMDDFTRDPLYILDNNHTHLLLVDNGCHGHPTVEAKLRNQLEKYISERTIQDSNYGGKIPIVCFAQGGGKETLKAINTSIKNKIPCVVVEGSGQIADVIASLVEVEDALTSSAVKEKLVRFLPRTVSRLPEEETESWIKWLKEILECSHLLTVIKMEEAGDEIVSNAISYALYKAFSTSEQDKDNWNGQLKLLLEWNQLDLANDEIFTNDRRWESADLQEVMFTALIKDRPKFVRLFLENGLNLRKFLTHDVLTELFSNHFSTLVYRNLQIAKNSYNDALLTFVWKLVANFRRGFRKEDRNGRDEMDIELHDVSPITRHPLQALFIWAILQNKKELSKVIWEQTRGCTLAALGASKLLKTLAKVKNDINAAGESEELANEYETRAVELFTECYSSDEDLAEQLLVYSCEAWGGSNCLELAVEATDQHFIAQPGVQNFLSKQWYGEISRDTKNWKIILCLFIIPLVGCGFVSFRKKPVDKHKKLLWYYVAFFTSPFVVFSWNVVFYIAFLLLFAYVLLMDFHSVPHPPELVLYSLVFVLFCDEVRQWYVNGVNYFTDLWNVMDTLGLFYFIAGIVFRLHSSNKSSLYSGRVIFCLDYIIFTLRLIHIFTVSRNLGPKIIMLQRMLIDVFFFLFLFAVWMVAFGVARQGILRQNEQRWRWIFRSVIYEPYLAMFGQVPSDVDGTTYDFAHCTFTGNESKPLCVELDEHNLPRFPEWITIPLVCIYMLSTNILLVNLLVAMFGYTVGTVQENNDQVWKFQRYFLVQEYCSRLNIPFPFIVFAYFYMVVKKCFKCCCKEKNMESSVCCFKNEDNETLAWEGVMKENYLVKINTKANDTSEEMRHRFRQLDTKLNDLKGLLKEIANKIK

stability of WS12 in hydrogel contact lens material [1]: without degradation or leaching
SMILES: COc1ccc(NC(=O)C2CC(C)CCC2C(C)C)cc1 (centres unmarked) [WS12, N-(4-Methoxyphenyl)-5-methyl-2-(1-methylethyl)cyclohexanecarboxamide]
activation of TRPM8 ion channels [2]: selectively activates
